Earlier results in PMC11997881, “Comprehensive Characterization of Bruton’s Tyrosine Kinase Inhibitor Specificity, Potency, and Biological Effects: Insights into Covalent and Noncovalent Mechanistic Signatures” (ACS Pharmacology & Translational Science, 2025).

Experiments:
BTK C481S [1] = details: literature values; read-out: average published IC50 for BTK C481S; cited from earlier work
BTK C481S [2] = details: average of literature values; read-out: average published Kd for BTK C481S; cited from earlier work

| SMILES | IC50 (BTK C481S [1]) | Kd (BTK C481S [2]) |
| --- | --- | --- |
| O=C(c1ccc(Oc2ccccc2)cc1Cl)c1c[nH]c2ncnc(N[C@@H]3CC[C@@H](CO)OC3)c12 [Nemtabrutinib] | 0.39 nM |  |
| COc1ccc(F)cc1C(=O)NCc1ccc(-c2nn([C@@H](C)C(F)(F)F)c(N)c2C(N)=O)cc1 [Pirtobrutinib] |  | 2.6 nM |
